Laboratory results as given in patent publication EP4707280A1, “1,4-CINEOLE DERIVATIVE AND INTERMEDIATE THEREOF, HERBICIDE CONTAINING SAID DERIVATIVE AS ACTIVE INGREDIENT, METHOD FOR USING HERBICIDE, AND METHOD FOR PREPARING AGROCHEMICAL COMPOSITION” (HOKKO CHEMICAL INDUSTRY CO., LTD., priority 2023, dated 2024).

Columns and labels:
Format in all cases: in vivo
[1] = system: Echinochloa crus-galli var. formosensis; assay: Test Example 1: herbicidal effect test by soil application in paddy rice; settings: Echinochloa crus-galli, soil, 336 h; 120 g active ingredient per 10 ares; applied immediately after sowing, flooded pots; 14 days after application; read-out: weed inhibition rate
Procedure, shortened: (§1)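 Treatment: 120 g active ingredient per 10 ares as a water-diluted emulsifiable concentrate, dropped onto flooded pots immediately after sowing. Thirty seeds per species went 0–1 cm into puddled paddy soil with 16:16:16 fertilizer, with ~3 cm flooding maintained in a glass greenhouse.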

[2] = system: Echinochloa crus-galli var. formosensis; assay: Test Example 2: herbicidal effect test by application during growth period of paddy rice; settings: Echinochloa crus-galli; 120 g per 10 ares; applied seven days after sowing, flooded pots; 14 days after application; read-out: weed inhibition rate
Procedure, shortened: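 Greenhouse pots of flooded paddy soil, seeded shallowly with 30 seeds per weed, are treated on day 7 by dropper with diluted emulsifiable concentrate equal to 120 g a.i./10 a. Duplicate pots are scored for inhibition rate 14 days post-application.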

[3] = system: Amaranthus viridis; assay: Test Example 3: herbicidal effect test by soil application in upland field; settings: Amaranthus viridis, 120 g per 10 ares, sprayed one day after sowing, 14 days after application, read-out: weed inhibition rate
Procedure, shortened: (§2)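 Weed inhibition (%) was assessed 14 days after treatment, in duplicate per concentration group. Seeds had been mixed into the upper 1 cm of upland alluvial loam, and the soil surface was sprayed one day later with the diluted emulsifiable concentrate at 120 g active ingredient per 10 ares.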

[4] = system: Digitaria ciliaris; assay: as above; settings: Digitaria ciliaris, 120 g per 10 ares, sprayed one day after sowing, 14 days after application, read-out: weed inhibition rate
Procedure, shortened: as §2

[5] = system: Echinochloa crus-galli; assay: as above; settings: Echinochloa crus-galli, 120 g per 10 ares, sprayed one day after sowing, 14 days after application, read-out: weed inhibition rate
Procedure, shortened: as §2

[6] = system: Echinochloa crus-galli; assay: Test Example 4: herbicidal effect test by stem and leaf treatment in upland field; settings: Echinochloa crus-galli; 120 g per 10 ares; sprayed seven days after sowing, upland soil; 14 days after application; read-out: weed inhibition rate
[7] = system: Echinochloa crus-galli var. formosensis; assay: Test Example 5: herbicidal effect test by soil application in paddy rice (low dose); settings: Echinochloa crus-galli, soil, 336 h; 7.5 g per 10 ares; applied immediately after sowing, flooded pots; 14 days after application; read-out: weed inhibition rate
Procedure, shortened: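 7.5 g a.i./10 a applied by dropper into ~3 cm floodwater immediately post-sowing (seeds 0–1 cm, 30 per species; puddled fertilized paddy soil, glasshouse). Duplicates; day-14 inhibition %.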

[8] = system: Echinochloa crus-galli var. formosensis; assay: Test Example 6: herbicidal effect test by application during growth period of paddy rice (low dose); settings: Echinochloa crus-galli; 7.5 g per 10 ares; applied seven days after sowing, flooded pots; 14 days after application; read-out: weed inhibition rate
Procedure, shortened: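 Puddled, fertilised paddy soil was sown with 30 seeds per species and flooded to about 3 cm. After 7 days in a glass greenhouse, the diluted emulsifiable concentrate went into the water by dropper at 7.5 g/10 a. Effect scored at 14 days.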

[9] = system: Digitaria ciliaris; assay: Test Example 7: herbicidal effect test by soil application in upland field (low dose); settings: Digitaria ciliaris, 7.5 g per 10 ares, sprayed one day after sowing, 14 days after application, read-out: weed inhibition rate
Procedure, shortened: (§3)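 Duplicate pots of alluvial loam, seeds incorporated in the surface 1 cm. Soil surface sprayed 1 d after sowing (EC in water, 100 L/10 a; 7.5 g a.i./10 a). Endpoint: % inhibition, day 14.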

[10] = system: Echinochloa crus-galli; assay: as above; settings: Echinochloa crus-galli, 7.5 g per 10 ares, sprayed one day after sowing, 14 days after application, read-out: weed inhibition rate
Procedure, shortened: as §3

[11] = system: Amaranthus viridis; assay: as above; settings: 7.5 g per 10 ares, sprayed one day after sowing, upland soil, 14 days after application, read-out: weed inhibition rate
[12] = system: Echinochloa crus-galli; assay: Test Example 8: herbicidal effect test by stem and leaf treatment in upland field (low dose); settings: Echinochloa crus-galli; 7.5 g per 10 ares; sprayed seven days after sowing, upland soil; 14 days after application; read-out: weed inhibition rate
[13] = system: Scirpus juncoides; assay: Test Example 1: herbicidal effect test by soil application in paddy rice; settings: Schoenoplectiella juncoides, soil, 336 h; 120 g active ingredient per 10 ares; applied immediately after sowing, flooded pots; 14 days after application; read-out: weed inhibition rate
Procedure, shortened: as §1

[14] = system: Chenopodium album; assay: Test Example 3: herbicidal effect test by soil application in upland field; settings: 120 g per 10 ares, sprayed one day after sowing, 14 days after application, read-out: weed inhibition rate
Procedure, shortened: as §2

[15] = system: Digitaria ciliaris; assay: Test Example 4: herbicidal effect test by stem and leaf treatment in upland field; settings: Digitaria ciliaris; 120 g per 10 ares; sprayed seven days after sowing, upland soil; 14 days after application; read-out: weed inhibition rate
[16] = system: Scirpus juncoides; assay: Test Example 5: herbicidal effect test by soil application in paddy rice (low dose); settings: Schoenoplectiella juncoides, 336 h, 7.5 g per 10 ares, applied immediately after sowing, flooded pots, 14 days after application, read-out: weed inhibition rate
Method: The present test was conducted in duplicate for each chemical concentration group, and the weed inhibition rate (%) was determined 14 days after chemical application using the following formula (Math. 1). [formula]
Wagner pots with an area of […] were filled with paddy soil, followed by addition of water and incorporation of chemical fertilizer (N:P:K = 16:16:16), after which puddling was performed. After that, seeds of Echinochloa crus-galli var. formosensis, broad-leaved weeds (Monochoria vaginalis), and Scirpus juncoides were sown at a depth of 0 cm to 1 cm, 30 seeds each. Immediately after sowing, the pots were flooded and a water depth of approximately 3 cm was maintained. Subsequent management was conducted in a glass greenhouse. Immediately thereafter, an emulsifiable concentrate prepared according to Formulation Example 5 using the compound shown below was diluted with water, and a specified amount of the diluted solution was applied by dropper. The amount of the active ingredient to be applied was equivalent to 7.5 g per 10 ares.
The present test was conducted in duplicate for each chemical concentration group, and the herbicidal effect was evaluated 14 days after chemical application using the same criteria as in Test Example 1.

CC(C)[C@]12C[C@@H](OCc3ccccc3F)[C@](C)(C[C@H]1O)O2 [1-68, (1R,2R,4S,5R)-5-[(2-fluorophenyl)methoxy]-4-methyl-1-isopropyl-7-oxabicyclo[2.2.1]heptan-2-ol]
≥ 80%: pest or weed control at 1200 g/ha [1] | inhibition at 1200 g/ha [2] | inhibition at 1200 g/ha [3] | inhibition at 1200 g/ha [4] | inhibition at 1200 g/ha [5] | inhibition at 1200 g/ha [6] | inhibition at 75 g/ha [7] | inhibition at 75 g/ha [8] | inhibition at 75 g/ha [9] | inhibition at 75 g/ha [10] | inhibition at 75 g/ha [11] | inhibition at 75 g/ha [12]

CC(C)[C@]12C[C@@H](OCc3ccccc3C(F)(F)F)[C@](C)(CC1=O)O2 [2-29, (1R,4S,5R)-1-isopropyl-4-methyl-5-((2-(trifluoromethyl)benzyl)oxy)-7-oxabicyclo[2.2.1]heptan-2-one]
≥ 80%: pest or weed control at 1200 g/ha [1] | pest or weed control at 1200 g/ha [13] | inhibition at 1200 g/ha [2] | inhibition at 1200 g/ha [3] | inhibition at 1200 g/ha [14] | inhibition at 1200 g/ha [4] | inhibition at 1200 g/ha [5] | inhibition at 1200 g/ha [15] | inhibition at 1200 g/ha [6] | inhibition at 75 g/ha [7] | inhibition at 75 g/ha [16] | inhibition at 75 g/ha [10] | inhibition at 75 g/ha [11] | inhibition at 75 g/ha [12]
